Where two headings read alike, the source gives them in different places. Bridges are numbered along the chain shown (N, C = ends). [ ]: non-standard residue; d: D form. The star is where a group is joined. DOTA = O=C(O)CN1CCN(CC(=O)O)CCN(CC(=O)*)CCN(CC(=O)O)CC1; Biotin = O=C1N[C@H]2[C@H](CS[C@H]2CCCCC(=O)*)N1; Lys(Me3) = C[N+](C)(C)CCCC[C@H](N)C(=O)O; Cit = NC(=O)NCCC[C@H](N)C(=O)O; PEG4 = NCCOCCOCCOCCOCCC(=O)O
Columns and labels:
[1] = In vivo biodistribution of 111In-labeled miniproteins by SPECT/CT, HT-1376 xenograft; parameters: species or system mouse; details: female, athymic nude, mouse, in vivo
Description: HT-1376 is a human cell line that expresses Nectin-4.
Humane endpoints: All animals were euthanized following the final imaging time point and carcasses were discarded according to IACUC protocols.
Image Processing: Images were generated as SPECT/CT pairs with the SPECT reported in units of activity.
Image generation: After the preprocessing described in A, individual maximum intensity projections (MIPs) were created with VivoQuant software for each subject at each time point and scaled in percent injected dose per gram (% ID/g). The CT for each image was windowed from −500 to 4500 Hounsfield Units (HU). The SPECT was windowed at various ranges to highlight different regions of uptake. Images were then stitched together using Image Magick based python tools to create montages of subjects over time and time points over groups.

Nectin-4 = target: T1, Nectin-4 (Homo sapiens, UniProt Q96NY8); assay: DELFIA whole cell binding assay, equilibrium binding affinity (KD), Table 2B
T1 sequence (Q96NY8 32-510): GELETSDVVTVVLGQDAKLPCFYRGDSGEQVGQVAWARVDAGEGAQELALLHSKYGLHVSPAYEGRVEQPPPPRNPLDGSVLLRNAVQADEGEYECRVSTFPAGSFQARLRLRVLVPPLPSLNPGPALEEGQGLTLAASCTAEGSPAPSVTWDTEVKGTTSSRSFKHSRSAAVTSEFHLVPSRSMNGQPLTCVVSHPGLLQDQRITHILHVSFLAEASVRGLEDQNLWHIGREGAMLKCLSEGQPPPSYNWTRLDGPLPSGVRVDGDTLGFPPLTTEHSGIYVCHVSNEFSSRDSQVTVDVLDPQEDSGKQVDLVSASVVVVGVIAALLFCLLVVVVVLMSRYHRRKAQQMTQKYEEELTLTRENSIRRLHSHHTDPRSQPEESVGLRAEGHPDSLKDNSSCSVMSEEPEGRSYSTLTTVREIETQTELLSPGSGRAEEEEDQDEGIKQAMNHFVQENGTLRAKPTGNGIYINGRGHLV
Experimental: A whole cell binding assay was used to estimate the equilibrium binding affinity (KD) or binding inhibition constant (Ki) of miniprotein ligands to cells expressing a target of interest. Cells were dispensed into a 384-well plate and incubated at 37° C., in 5% CO2 overnight. The next day cells were gently washed once in assay buffer prior to addition of europium chelated ligand. For KD determination, a miniprotein conjugated with europium chelate (DOTA or DTPA) in the presence or absence of 100-fold excess un-conjugated ligand was incubated with cells over 12 different concentrations ranging from 100 times below and above expected KD values. For Ki determination, a single concentration (KD equivalent concentration) of europium-chelate miniprotein was added to each well followed immediately by the addition of unconjugated competing ligand over 12 different concentrations ranging from 100 times below and above expected Ki values as before. The plate was incubated for 1.5 h at room temperature to reach binding equilibrium. Cells were then washed three times at room temperature with 1×PBS followed by the addition of 2 M HCl and incubated for two h at 37° C. Following this step, 2 M NaOH and fluorescent inducer solution were added to each well and incubated for 30 minutes at room temperature according to the manufacturer's protocol (Perkin-ELMER DELFIA assay). Plates were read on an Envision plate reader and a curve-fitting model was applied to estimate KD and Ki values using GraphPad Prism software. Mean DELFIA K; values for exemplary miniproteins are recorded in TABLE 9A.

[2] = Table 2B, binding to Nectin-4, read-out: Binding Affinity (KD)

Molecule	Kd (Nectin-4) [nM]	other results
CC[C@H](C)[C@@H]1NC(=O)[C@H](Cc2ccc(O)cc2)NC(=O)[C@H](Cc2ccc(O)cc2)NC(=O)[C@@H]2CSSC[C@@H](C(=O)O)NC(=O)CNC(=O)[C@H](CC(C)C)NC(=O)[C@H](CC(N)=O)NC(=O)[C@H](CCC(=O)O)NC(=O)[C@H](CC(C)C)NC(=O)[C@H]([C@@H](C)CC)NC(=O)[C@H](CCC(=O)O)NC(=O)[C@H](CCC(=O)O)NC(=O)[C@H]([C@@H](C)CC)NC(=O)[C@H](CSSC[C@H](NC(C)=O)C(=O)N[C@@H](CCC(=O)O)C(=O)N[C@@H](Cc3ccc(O)cc3)C(=O)N[C@@H](CC(=O)O)C(=O)N[C@@H](CCC(=O)O)C(=O)N[C@@H](CCC(N)=O)C(=O)N[C@@H](Cc3ccccc3)C(=O)N[C@@H](Cc3ccccc3)C(=O)N[C@@H]([C@@H](C)O)C(=O)N[C@@H](C)C(=O)N[C@@H](CC(C)C)C(=O)N[C@@H](CCCCN)C(=O)N[C@@H](CCCNC(=N)N)C(=O)N[C@@H](CC(C)C)C(=O)N[C@@H](CCCNC(=N)N)C(=O)NCC(=O)NCC(=O)N[C@@H](CC(=O)O)C(=O)N[C@@H]([C@@H](C)CC)C(=O)N2)NC(=O)[C@H](CC(C)C)NC(=O)[C@H](CC(=O)O)NC(=O)[C@@H]2CCCN2C(=O)[C@H](CC(C)C)NC(=O)[C@H]([C@@H](C)O)NC(=O)[C@H](CC(N)=O)NC(=O)[C@H](Cc2ccccc2)NC(=O)[C@H](CCC(N)=O)NC(=O)[C@H](C)NC(=O)[C@H](CO)NC1=O [Compound C100]		tissue uptake at 4 h [1]: 112 %ID/g; tissue uptake at 24 h [1]: 61.8 %ID/g
Ac-CEYDEEFFAGLKRLRRGDICYYIKKKFDKVPDLCIEEILDKLGC-OH (disulfide 1-34, 20-44) [Compound C14]		Kd (Nectin-4; [2]): 14.1 nM
Ac-CEYDEEFFKGLKRLRGGDICYYIKKKFKKVPKLCIEEILDKLGC-OH (disulfide 1-34, 20-44) [Compound C80]		Kd (Nectin-4; [2]): 2.7 nM
Ac-CEYDEEFFLGLKRLRGGDICYYIKKKFKKVPDLCIEEILDKLGC-OH (disulfide 1-34, 20-44) [Compound C34]		Kd (Nectin-4; [2]): 3.17 nM
Ac-CEYDEEFFLGLKRLRGGDICYYIKKKFKKVPDLCIEEILEKLGC-OH (disulfide 1-34, 20-44) [Compound C60]		Kd (Nectin-4; [2]): 3.17 nM
Ac-CEYDEEFFLGLKRLRGGDICYYIKKKFKKVPELCIEEILKKLGC-OH (disulfide 1-34, 20-44) [Compound C67]		Kd (Nectin-4; [2]): 2.64 nM
Ac-CEYDEEFFTALARLRGGDICYYIQAKFQYLPGLCIEEILDNLGCS-OH (disulfide 1-34, 20-44) [Compound C124]		Kd (Nectin-4; [2]): 1.1 nM
Ac-CEYDEKFFTGLKRLRGGDICYYIKKKFKKVPKLCIEEILDKLGC-OH (disulfide 1-34, 20-44) [Compound C70]		Kd (Nectin-4; [2]): 2.2 nM
{Biotin-PEG4}-CDYDEEFFTALA[Cit]LRGGDICEYIQAKFQYLPGLCIEEILDNLGCS-OH (disulfide 1-34, 20-44) [Compound C176]	1.3	
{Biotin-PEG4}-CDYDEEFFTALKRLRGDDICSYIQASFQYLPGLCIEEILDNLGCS-OH (disulfide 1-34, 20-44) [Compound C192]	1.3	
{Biotin-PEG4}-CDYDEEFFTALKRLRGGDICEYIQASFQYLPGLCIEEILDNLGCS-OH (disulfide 1-34, 20-44) [Compound C188]	1.6	
{Biotin-PEG4}-CEYDEAFFTALARLRGGDICQYIQAKFQYLPGLCIEEILDNLGCS-OH (disulfide 1-34, 20-44) [Compound C151]	0.68	
{Biotin-PEG4}-CEYDEEFFTALARLRGGDICEYIQAKFQYLPKLCIEEILDNLGCS-OH (disulfide 1-34, 20-44) [Compound C167]	1.2	
{Biotin-PEG4}-CEYDEEFFTALARLRGGDICQYIQAKFAYVPGLCIEEILDNLGCS-OH (disulfide 1-34, 20-44) [Compound C155]	1.1	
{Biotin-PEG4}-CEYDEEFFTALARLRGGDICYYIQAYFQYLPGLCIEEILDNLGCS-OH (disulfide 1-34, 20-44) [Compound C165]	4.1	
{Biotin-PEG4}-CEYDEEFFTALA[Cit]LRGDDICSYIQAKFQYLPGLCIEEILDNLGCS-OH (disulfide 1-34, 20-44) [Compound C172]	1.8	

Molecule	Kd (Nectin-4) [nM]	other results
{Biotin-PEG4}-CEYDEEFFTALA[Cit]LRGGDICEYIQAKFQYLPGLCIEEILDNLGCS-OH (disulfide 1-34, 20-44) [Compound C171]	2.2	
{Biotin-PEG4}-CEYDEEFFTALA[Cit]LRGGDICSYIQAKFQYLPGLCIEEILDNLGCS-OH (disulfide 1-34, 20-44) [Compound C175]	2.3	
{Biotin-PEG4}-CEYDEEFFTALKRLRGDDICEYIQASFQYLPGLCIEEILDNLGCS-OH (disulfide 1-34, 20-44) [Compound C181]	3	
{Biotin-PEG4}-CEYDEEFFTALKRLRGDDICYYIQASFQYLPGLCIEEILDNLGCS-OH (disulfide 1-34, 20-44) [Compound C180]	2.7	
{Biotin-PEG4}-CEYDEEFFTALKRLRGGDICEYIQASFQYLPGLCIEEILDNLGCS-OH (disulfide 1-34, 20-44) [Compound C178]	1.4	
{Biotin-PEG4}-CEYDEEFFTALKRLRGGDICEYIQA[Lys(Me3)]FQYLPGLCIEEILDNLGCS-OH (disulfide 1-34, 20-44) [Compound C201]	0.68	
{Biotin-PEG4}-CEYDEEFFTALKRLRGGDICYYIQAKFQYLPKLCIEEILDNLGCS-OH (disulfide 1-34, 20-44) [Compound C119]	0.95	
{Biotin-PEG4}-CEYDEEFFTALKRLRGGDICYYIQASFQYLPGECIEEILDNLGCS-OH (disulfide 1-34, 20-44) [Compound C177]	2	
{Biotin-PEG4}-CEYDEQFFTALARLRGGDICEYIQAKFQYLPGLCIEEILDNLGCS-OH (disulfide 1-34, 20-44) [Compound C146]	0.54	
{Biotin-PEG4}-CEYDEQFFTALKRLRGADICDYIQASFQYLPGLCIEEILDNLGCS-OH (disulfide 1-34, 20-44) [Compound C194]	1.1	
{Biotin-PEG4}-CEYDEQFFTALKRLRGGDICDYIQASFQYLPGLCIEEILDNLGCS-OH (disulfide 1-34, 20-44) [Compound C196]	1.6	
{DOTA-PEG4}-CEYDEEFFTALKRLRGGDICYYIQKAFQYLPGLCIEEILDNLGCS-OH (disulfide 1-34, 20-44) [Compound C121]		tissue uptake at 4 h [1]: 100 %ID/g; tissue uptake at 24 h [1]: 60.4 %ID/g
{DOTA-PEG4}-CEYDEEFFTALSRLRGGDICYYIQQAFQYLPGLCIEEILDNLGCS-OH (disulfide 1-34, 20-44) [Compound C133]		tissue uptake at 4 h [1]: 43.8 %ID/g; tissue uptake at 24 h [1]: 20.9 %ID/g
{DOTA-PEG4}-CEYDEQFFTALARLRGGDICYYIQEQFATVPGLCIEEILDQLGCS-OH (disulfide 1-34, 20-44) [Compound C129]		tissue uptake at 4 h [1]: 43.5 %ID/g; tissue uptake at 24 h [1]: 19.9 %ID/g
{DOTA-PEG4}-CEYDEQFFTALSSLRGGDICYYIQEQFANVPGICIEEILDNLGCS-OH (disulfide 1-34, 20-44) [Compound C137]		tissue uptake at 4 h [1]: 78.8 %ID/g; tissue uptake at 24 h [1]: 42.9 %ID/g

Reference: patent US12427212B2, “Nectin-4 binding miniproteins, conjugates and uses thereof” (Aktis Oncology, Inc., priority 2023, dated 2025)
